Measured values as given in publication PMC10778824, “New Chalcone Derivatives Containing 2,4-Dichlorobenzenesulfonamide Moiety with Anticancer and Antioxidant Properties” (International Journal of Molecular Sciences, 2023).
Converted amounts (≈) assume the structure as drawn.

Assays:
[1] = system: Listeria monocytogenes PCM2191; assay: MIC determination; format: cell-based; conditions: 37 °C, 48 h
Method: (§1) The MIC determinations for Staphylococcus epidermidis ATCC14990, Staphylococcus aureus ATCC6538, Enterococcus faecalis ATCC51299, Klebsiella pneumoniae ATCC13883, Escherichia coli ATCC8739, Salmonella enterica ATCC13076, Helicobacter pylori ATCC43504, Campylobacter jejuni ZMF, Campylobacter coli ZMF, Bacillus cereus PCM 1948,2019 (ATCC11778), and Listeria monocytogenes PCM2191 were performed based on the methodology described by Krauze-Baranowska et al.. The procedure for H. pylori was used in the experiments with Campylobacter strains, and the procedure for B. subtilis was used in the experiments with L. monocytogenes and B. cereus. The tested samples were dissolved in DMSO and diluted with water (concentration of approximately 500 μg/mL). The solutions were diluted geometrically by transferring the mixture/dilution (100 μL) from the first to the twelfth well of the microtiter plate. The final concentrations of samples used for antimicrobial effects ranged from 500 to 0.006 µg/mL. Ampicillin was used as a reference compound in the concentration range of 128 to 0.0625 µg/mL. The tests were incubated at 37 °C for 48 h. The diluent concentration had no effect on the activity of the tested compounds. All experiments were performed in triplicate.

[2] = system: Salmonella enterica ATCC13076; assay: MIC determination; format: cell-based; conditions: 37 °C, 48 h
Method: as §1

[3] = system: Bacillus cereus PCM 1948,2019 (ATCC11778); assay: MIC determination; format: cell-based; conditions: 37 °C, 48 h
Method: as §1

[4] = system: Staphylococcus aureus ATCC6538; assay: MIC determination; format: cell-based; conditions: 37 °C, 48 h
Method: as §1

[5] = system: Campylobacter jejuni ZMF; assay: MIC determination; format: cell-based; conditions: 37 °C, 48 h
Method: as §1

[6] = system: Enterococcus faecalis ATCC51299; assay: MIC determination; format: cell-based; conditions: 37 °C, 48 h
Method: as §1

[7] = system: Escherichia coli ATCC8739; assay: MIC determination; format: cell-based; conditions: 37 °C, 48 h
Method: as §1

[8] = system: Helicobacter pylori ATCC43504; assay: MIC determination; format: cell-based; conditions: 37 °C, 48 h
Method: as §1

[9] = system: Staphylococcus epidermidis ATCC14990; assay: MIC determination; format: cell-based; conditions: 37 °C, 48 h
Method: as §1

[10] = system: Klebsiella pneumoniae ATCC13883; assay: MIC determination; format: cell-based; conditions: 37 °C, 48 h
Method: as §1

[11] = system: Campylobacter coli ZMF; assay: MIC determination; format: cell-based; conditions: 37 °C, 48 h
Method: as §1

[12] = DPPH radical scavenging assay; conditions: concentration of 800 µg/mL
Method: The DPPH radical scavenging assay of samples (ligands or complexes) was performed with ascorbic acid as a standard. Different concentrations of chalcone derivatives, dissolved in DMSO, were mixed with the same amount of 0.06 mM DPPH methanolic solution and incubated at room temperature in the dark for 30 min. The absorbance was analyzed at λ = 517 nm using a 96-well microplate reader (Epoch, BioTek System, Winooski, VT, USA). The control was composed of DPPH and DMSO. DPPH inhibition was calculated according to the following Formula (2):DPPH Inhibition (%) = [(Acontrol − Asample)/Acontrol] × 100%(2)

[13] = system: human neonatal fibroblasts; assay: MTT assay, noncancerous fibroblasts; format: cell-based; conditions: Homo sapiens, Fibroblast, 24 h treatment
Method: (§2) The human gastric adenocarcinoma AGS, cervical cancer HeLa, and acute promyelocytic leukemia HL-60 cells were obtained from the American Type Culture Collection (ATCC, Manassas, VA, USA). Human neonatal fibroblasts were obtained from LGC Standards (Luckenwalde, Germany). The HeLa and AGS lines were cultured in Dulbecco’s modified Eagle’s medium (DMEM) and DMEM/F12 medium, respectively. The HL-60 line was maintained in RPMI-1640 medium. Fibroblasts were cultured in Fibroblast Growth Medium with Supplement Mix. All the media were supplemented with 100 units/mL of penicillin, 100 µg/mL of streptomycin, and 10% (v/v) fetal bovine serum (FBS) (Merck Millipore, Burlington, MA, USA). The cells were incubated at 37 °C and 5% CO2.
(§3) To estimate the cytotoxic effect of the five compounds (4–8), MTT (3-(4,5-dimethylthiazol-2-yl)-2,5-diphenyltetrazolium bromide) assay was used. Oxaliplatin was used as a positive control in this test. All the cell lines were seeded in 96-well plates at a density of 5 × 10^3 cells/well and treated for 24 h with the compounds at concentrations of 0.5–40 µg/mL. Oxaliplatin was tested in the range of 20–400 µg/mL (50–1000 µM). After treatment, the cells were incubated with MTT (0.5 mg/mL; Merck Millipore, Burlington, MA, USA) for 3 h. Then, DMSO was used to dissolve formazan crystals, and the absorbance of the formazan solution was measured with a plate reader (Epoch, BioTek Instruments, Santa Clara, CA, USA). All the results (±standard deviation (SD)) were obtained from six repetitions in at least two independent experiments. The data are expressed as IC50 values (µg/mL).

[14] = system: cervical cancer HeLa; assay: MTT assay, HeLa cells; format: cell-based, human; conditions: for IC50: Homo sapiens, HeLa, MTT, 24 h treatment; for selectivity index HeLa: SI = IC50 noncancer cells/IC50 cancer cells, in relation to human neonatal fibroblasts
Method: as §2, §3

[15] = system: acute promyelocytic leukemia HL-60; assay: MTT assay, HL-60 cells; format: cell-based, human; conditions: for IC50: Homo sapiens, HL-60, 24 h, MTT, 24 h treatment; for selectivity index HL-60: SI = IC50 noncancer cells/IC50 cancer cells, in relation to human neonatal fibroblasts
Method: as §2, §3

[16] = target: T1, neutrophil elastase (Sus scrofa, UniProt P00772); assay: Elastase assay (SANA substrate); format: biochemical, porcine; conditions: Tris-HCl pH 8.0, SANA substrate; read-out: neutrophil elastase inhibition IC50 (converted)
T1 construct: purchased Sigma Chemical Co. (St. Louis, MO, USA)
Method: The elastase analysis was performed according to the spectrophotometric method with oleanolic acid as a reference. The reaction mixture (Tris-HCl buffer (pH 8.0), 1.0 μg/mL porcine pancreatic elastase, and different concentrations of chalcone derivatives was preincubated at room temperature for 15 min. Afterwards, the addition of the substrate—SANA—started the reaction. Product formation changes were analyzed at λ = 410 nm for 20 min every 20 s (Epoch, BioTek Instruments, Santa Clara, CA, USA). The control was composed of Tris-HCl buffer (pH 8.0), an appropriate concentration of the chalcone derivative, and SANA.

[17] = β-Carotene bleaching test; conditions: compared to ascorbic acid
Method: β-Carotene bleaching test was based on the method described by Olszowy et al. with some modifications. First, 1 mg of β-carotene was dissolved in 5 mL of chloroform. Afterwards, […] of linoleic acid and 200 mg of Tween 40 were added. The chloroform was evaporated, and 50 mL of oxygenized water was added. The created emulsion was mixed with different concentrations of chalcone derivatives. β-carotene bleaching was analyzed at λ = 492 nm before (t = 0 min) and after 90 min (t = 90 min) of incubation at 50 °C (Epoch, BioTek Instruments, Santa Clara, CA, USA). Ascorbic acid was used as a standard. The control was composed of emulsion and DMSO.
The results were calculated according to the following Formula (4):[(AsampleT0 − AsampleT90)/(AcontrolT0 − AcontrolT90) × 100%(4)

[18] = system: gastric adenocarcinoma AGS; assay: MTT assay, AGS cells; format: cell-based, human; conditions: for IC50: Homo sapiens, AGS, 24 h, MTT, 24 h treatment; for selectivity index AGS: SI = IC50 noncancer cells/IC50 cancer cells, in relation to human neonatal fibroblasts
Method: as §2, §3

[19] = system: cancer cells (HeLa, HL-60, AGS); assay: MTT assay, cancer cells taken together; format: cell-based, human; conditions: HL-60 and AGS together
Method: as §2, §3

T1 sequence (P00772 27-266): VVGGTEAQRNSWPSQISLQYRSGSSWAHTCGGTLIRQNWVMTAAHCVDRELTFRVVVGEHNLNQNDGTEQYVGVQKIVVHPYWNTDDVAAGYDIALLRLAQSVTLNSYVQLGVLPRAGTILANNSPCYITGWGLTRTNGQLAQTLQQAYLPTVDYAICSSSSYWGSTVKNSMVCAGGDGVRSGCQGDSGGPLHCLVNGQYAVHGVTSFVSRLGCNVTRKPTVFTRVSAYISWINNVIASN

| MIC [1] | MIC [2] | MIC [3] | MIC [4] | MIC [5] | MIC [6] | MIC [7] | MIC [8] | MIC [9] | MIC [10] | MIC [11] | IC50 [14] | IC50 [15] | IC50 [16] | IC50 [18] | SMILES | % of DPPH radical inhibition [12] | IC50 [13] | selectivity index HeLa [14] | selectivity index HL-60 [15] | selectivity index AGS [18] | other results |
| --- | --- | --- | --- | --- | --- | --- | --- | --- | --- | --- | --- | --- | --- | --- | --- | --- | --- | --- | --- | --- | --- |
| > 500 µg/mL | > 500 µg/mL | > 500 µg/mL | > 500 µg/mL | > 500 µg/mL | > 500 µg/mL | > 500 µg/mL | > 500 µg/mL | > 500 µg/mL | > 500 µg/mL | > 500 µg/mL | 9.63 ± 0.06 µg/mL (≈ 21.6 µM) | 2.37 ± 0.23 µg/mL (≈ 5.31 µM) | 119 µM | 1.23 ± 0.23 µg/mL (≈ 2.76 µM) | Cc1cc(S(=O)(=O)Nc2ccc(C(=O)/C=C/c3ccccc3)cc2)c(Cl)cc1Cl [Compound 4, (E)-2,4-Dichloro-N-(4-Cinnamoylphenyl)-5-Methylbenzenesulfonamide] | 19.49 ± 0.38% | 32.1 ± 2.91 µg/mL (≈ 72 µM) | 3.34 | 13.57 | 26.14 | protection of lipids oxidation / reduction of lipid peroxidation (in words) [17]: weaker properties; IC50 toward cancer cells [19]: weaker activity |
| > 500 µg/mL | > 500 µg/mL | > 500 µg/mL | > 500 µg/mL | > 500 µg/mL | > 500 µg/mL | > 500 µg/mL | > 500 µg/mL | > 500 µg/mL | > 500 µg/mL | > 500 µg/mL | 8.65 ± 0.52 µg/mL (≈ 18.6 µM) | 1.69 ± 0.2 µg/mL (≈ 3.64 µM) | 181 µM | 4.49 ± 0.44 µg/mL (≈ 9.67 µM) | Cc1cc(S(=O)(=O)Nc2ccc(C(=O)/C=C/c3ccc(F)cc3)cc2)c(Cl)cc1Cl [Compound 6, (E)-2,4-Dichloro-N-{4-[3-(4-Fluorophenyl)acryloyl]phenyl}-5-Methylbenzenesulfonamide] | 21.85 ± 0.22% | 27 ± 2.29 µg/mL (≈ 58.1 µM) | 3.12 | 15.98 | 6.01 | IC50 toward cancer cells [19]: weaker activity |
